Earlier results in patent US20250152987A1 (priority 2022, published 2025).

Tested on: SARS CoV-2 virus

SMILES: CN(C)c1ccc2nc3ccc(=[N+](C)C)cc-3sc2c1 [methylene blue]
- inactivation of SARS CoV-2 virus: inactivation
